This is an account of results in US5250679A, “Nonpeptidyl platelet aggregation inhibitors having specificity for the GPIIb III receptor” (Genentech, Inc., priority 1992, dated 1993).

This experiment addresses T1, GP IIb IIIa (Homo sapiens, UniProt P05106+P08514).
T1 construct: from tissue; host or cells: outdated human platelets
Nature of the experiment: Fibrinogen-GP IIb IIIa Receptor ELISA Binding Assay (Fg/IIbIIIa). On the procedure:
Briefly, microtiter plates are coated with fibrinogen (10 mg/ml) and then blocked with TACTS buffer containing 0.5% bovine serum albumin (BSA). […] After another wash a goat anti-mouse IgG conjugated to horseradish peroxidase is added. […] The reaction is stopped with 1N sulfuric acid and the absorbance at 492 nm is recorded. […] Outdated human platelets are washed 3 times with 10 mM tris-HCl, 150 mM NaCl (TBS), 1 mM EDTA, pH 7.5, and centrifuged at 2000×g to pellet cells. […] The supernatant fraction is collected and the supernatant is loaded onto a concanavalin-A column, previously equilibrated in TBS, 1 mM Ca2 Cl2, 0.1% Triton, 0.05% NaN3 and eluted with 0.2M a-methylmannoside. Fractions are pooled and loaded onto a heparin-agarose column. The flowthrough is collected and concentrated on an Amicon YM 30 filter to a volume of approximately 5-10 ml. The concentrate is then applied to an S-300 column (500 ml) and 6 ml fractions are collected. The GP IIb IIIa containing fractions are collected, pooled, and stored at -80° C. […] The precipitate is spun down in appropriate size bottles at 2000×g. The supernatant is decanted and the precipitate resuspended in 150 mM NaCl (approximately 50% of the original volume). […] The suspension is spun down and the precipitate is resuspended in Tris-saline in a minimal volume (approximately 5% of the original volume). Any remaining insoluble material is spun down at 2000 rpm in a Sorval type centrifuge and the fibrinogen supernatant is decanted and dialyzed overnight at 4° C. against Tris-saline. Characterization of the fibrinogen is by the Bradford protein assay, SDS-PAGE, and/or Western blotting using well known standard procedures. Briefly, 96 well plates are coated (Type Nunc 1 MaxisorpTM) with 10 mg/ml purified fibrinogen ([…]), and allowed to stand overnight at 4° C. […] The plates are again washed three times with PBS/Tween and then […] of sample in TNCNT is added. The mixture is incubated for 15 minutes at room temperature on a plate shaker. […] Fifty ml of this diluted GP IIb IIIa is then added to each well and incubated on a plate shaker at room temperature. After one hour, the plates are washed four times with PBS/Tween and 100 ml of a polyclonal or monoclonal antibody specific for GP IIIa such as AP3 (1 mg/ml) (See e.g. […] After a one hour incubation at room temperature on a plate shaker, the samples are washed 4 times with PBS/Tween. […] The color develops within about 3 to 20 minutes and the reaction is stopped with 100 ml 1M H2 SO4. The optical density at 492 nm vs 405 nm is recorded and IC50 values are determined.
(An ELISA detects its analyte on a solid surface through an enzyme-linked reagent.)

[1] abbreviates: Example 29, Cmpd # 1-105, read-out: IC50 Fg/IIbI.
[2] abbreviates: Examples 29 and 30, Cmpd # tables, read-out: IC50 (μM) Fg/IIbIIIa.

Where a name gives a salt, the structure may show the parent alone. Read-outs that look alike come from different tables or passages of the source.

T1 sequence (P08514 32-887 limits assumed): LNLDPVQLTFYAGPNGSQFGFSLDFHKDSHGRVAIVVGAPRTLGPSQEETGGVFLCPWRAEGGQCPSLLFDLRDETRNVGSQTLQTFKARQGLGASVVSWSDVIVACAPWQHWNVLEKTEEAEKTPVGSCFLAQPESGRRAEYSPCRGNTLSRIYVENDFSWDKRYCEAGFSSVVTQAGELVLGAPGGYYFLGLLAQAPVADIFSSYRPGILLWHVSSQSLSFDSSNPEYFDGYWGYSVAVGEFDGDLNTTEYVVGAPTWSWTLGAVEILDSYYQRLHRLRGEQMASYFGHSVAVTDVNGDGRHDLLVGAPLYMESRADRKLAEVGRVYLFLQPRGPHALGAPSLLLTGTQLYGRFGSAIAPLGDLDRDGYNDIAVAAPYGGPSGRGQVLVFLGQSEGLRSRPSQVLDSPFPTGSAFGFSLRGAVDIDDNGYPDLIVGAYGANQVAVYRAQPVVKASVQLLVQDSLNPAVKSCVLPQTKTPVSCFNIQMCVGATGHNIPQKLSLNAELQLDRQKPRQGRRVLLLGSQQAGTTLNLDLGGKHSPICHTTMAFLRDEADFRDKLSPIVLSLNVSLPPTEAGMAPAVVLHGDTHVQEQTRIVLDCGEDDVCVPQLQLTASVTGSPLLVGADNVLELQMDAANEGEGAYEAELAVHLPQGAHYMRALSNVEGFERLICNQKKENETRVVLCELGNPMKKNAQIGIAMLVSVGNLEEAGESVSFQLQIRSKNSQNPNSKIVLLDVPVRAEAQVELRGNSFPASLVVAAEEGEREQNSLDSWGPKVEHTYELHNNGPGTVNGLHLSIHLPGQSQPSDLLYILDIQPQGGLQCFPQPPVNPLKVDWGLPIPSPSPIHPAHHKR
T1 sequence (P08514 891-1039 partner limits assumed): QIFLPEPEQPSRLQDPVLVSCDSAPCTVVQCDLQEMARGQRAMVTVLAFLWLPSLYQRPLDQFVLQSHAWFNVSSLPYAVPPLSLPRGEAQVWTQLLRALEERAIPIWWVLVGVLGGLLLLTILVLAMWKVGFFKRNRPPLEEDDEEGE
T1 sequence (P05106 27-788): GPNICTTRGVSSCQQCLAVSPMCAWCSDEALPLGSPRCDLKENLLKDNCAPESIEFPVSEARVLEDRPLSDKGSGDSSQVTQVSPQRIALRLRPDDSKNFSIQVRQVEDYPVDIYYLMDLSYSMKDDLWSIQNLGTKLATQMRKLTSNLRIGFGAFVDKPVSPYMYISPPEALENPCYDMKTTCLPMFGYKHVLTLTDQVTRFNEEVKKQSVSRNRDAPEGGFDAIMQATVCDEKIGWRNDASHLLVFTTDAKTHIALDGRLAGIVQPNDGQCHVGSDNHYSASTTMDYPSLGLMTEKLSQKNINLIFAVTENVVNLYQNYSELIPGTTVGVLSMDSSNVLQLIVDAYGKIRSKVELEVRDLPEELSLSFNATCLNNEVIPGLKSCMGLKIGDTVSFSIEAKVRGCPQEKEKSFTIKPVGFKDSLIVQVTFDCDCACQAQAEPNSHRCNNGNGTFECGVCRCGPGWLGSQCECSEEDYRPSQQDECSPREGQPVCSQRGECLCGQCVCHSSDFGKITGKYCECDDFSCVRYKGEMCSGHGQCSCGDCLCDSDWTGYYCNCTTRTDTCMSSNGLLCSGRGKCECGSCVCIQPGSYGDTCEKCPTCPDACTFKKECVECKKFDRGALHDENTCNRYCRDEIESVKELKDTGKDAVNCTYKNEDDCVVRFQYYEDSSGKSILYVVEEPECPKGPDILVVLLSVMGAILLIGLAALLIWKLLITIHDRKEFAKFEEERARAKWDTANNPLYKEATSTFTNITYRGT

In the case of `N=C(N)NCCCCCCc1ccc2c(c1)C(=O)N(CCC(=O)O)CC(=O)N2Cc1cccc(Oc2ccccc2)c1` [Cmpd 91, 1-(m-phenoxybenzyl)-4-(2-carboxyethyl)-7-(6-guanidinohexyl)-3,4-dihydro-1H-1,4-benzodiazepine-2,5-dione trifluoroacetate], the IC50 under setting [1] stood at 0.009 µM.

For the molecule `N=C(N)NCCCCCc1ccc2c(c1)C(=O)N(CCC(=O)O)CC(=O)N2Cc1cccc(Oc2ccccc2)c1` [Cmpd 92, 1-(m-phenoxybenzyl)-4-(2-carboxyethyl)-7-(5-guanidinopentyl)-3,4-dihydro-1H-1,4-benzodiazepine-2,5-dione trifluoroacetate], the IC50 under setting [1] was found to be 0.011 µM.

`N=C(N)NCCCCCc1ccc2c(c1)C(=O)N(CCC(=O)O)CC(=O)N2Cc1ccc(C(F)(F)F)cc1` [Cmpd 93, 1-(p-trifluoromethylbenzyl)-4-(2-carboxyethyl)-7-(5-guanidinopentyl)-3,4-dihydro-1H-1,4-benzodiazepine-2,5-dione trifluoroacetate]: under setting [1], the IC50 is 0.014 µM.

In the case of `NCCCCCCc1ccc2c(c1)C(=O)N(CCC(=O)O)CC(=O)N2Cc1cccc(Oc2ccccc2)c1` [Cmpd 94, 1-(m-phenoxybenzyl)-4-(2-carboxyethyl)-7-(6-aminohexyl)-3,4-dihydro-1H-1,4-benzodiazepine-2,5-dione trifluoroacetate], under setting [1], the IC50 turned out to be 0.009 µM.

Take `NCCCCCc1ccc2c(c1)C(=O)N(CCC(=O)O)CC(=O)N2Cc1cccc(Oc2ccccc2)c1` [Cmpd 95, 1-(m-phenoxybenzyl)-4-(2-carboxyethyl)-7-(5-aminopentyl)-3,4-dihydro-1H-1,4-benzodiazepine-2,5-dione trifluoroacetate]: the IC50 under setting [1] was 0.108 µM.

On to `NCCCCCc1ccc2c(c1)C(=O)N(CCC(=O)O)CC(=O)N2Cc1ccc(C(F)(F)F)cc1` [Cmpd 96, 1-(p-trifluoromethylbenzyl)-4-(2-carboxyethyl)-7-(5-aminopentyl)-3,4-dihydro-1H-1,4-benzodiazepine-2,5-dione trifluoroacetate], for which, under setting [1], the IC50 turned out to be 0.186 µM.

With `NCCCC#Cc1ccc2c(c1)C(=O)N(CCC(=O)O)CC(=O)N2Cc1ccc(F)cc1F` [Cmpd 97], the IC50 under setting [1] was 0.13 µM.

For `N=C(N)NCCCC#Cc1ccc2c(c1)C(=O)N(CCC(=O)O)CC(=O)N2Cc1ccc(F)cc1F` [Cmpd 98], the IC50 under setting [1] worked out at 0.024 µM.

Regarding `NCCCCC#Cc1ccc2c(c1)C(=O)N(CCC(=O)O)CC(=O)N2Cc1ccc(F)cc1F` [Cmpd 99], the IC50 under setting [1] worked out at 0.027 µM.

`N=C(N)NCCCCC#Cc1ccc2c(c1)C(=O)N(CCC(=O)O)CC(=O)N2Cc1ccc(F)cc1F` [Cmpd 100]: the IC50 under setting [1] was determined as 0.025 µM.

`NCCCCCc1ccc2c(c1)C(=O)N(CCC(=O)O)CC(=O)N2Cc1ccc(F)cc1F` [Cmpd 101]: under setting [1], the IC50 was found to be 0.2 µM.

Consider `N=C(N)NCCCCCc1ccc2c(c1)C(=O)N(CCC(=O)O)CC(=O)N2Cc1ccc(F)cc1F` [Cmpd 102], for which the IC50 under setting [1] stood at 0.016 µM.

Take `NCCCCCCc1ccc2c(c1)C(=O)N(CCC(=O)O)CC(=O)N2Cc1ccc(F)cc1F` [Cmpd 103, 1-(2,4-difluorophenyl)methyl-4-(2-carboxyethyl)-7-(6-aminohexyl)-3,4-dihydro-1H-1,4-benzodiazapine-2,5-dione]: under setting [1], the IC50 was determined as 0.021 µM.

As for `N=C(N)NCCCCCCc1ccc2c(c1)C(=O)N(CCC(=O)O)CC(=O)N2Cc1ccc(F)cc1F` [Cmpd 104], the IC50 under setting [1] came out at 0.038 µM.

With `CC(=O)NCCCCCCc1ccc2c(c1)C(=O)N(CCC(=O)O)CC(=O)N2Cc1ccc(Cl)cc1` [Cmpd 105], the IC50 under setting [1] is 8.5 µM.

On to `NCCCC#Cc1ccc2c(c1)C(=O)N(CCC(=O)O)CC(=O)N2Cc1cccc(NC(=O)CN)c1` [Cmpd 106], for which the IC50 under setting [2] turned out to be 0.068 µM.

`NCCCCCCc1ccc2c(c1)C(=O)N(CCC(=O)O)CC(=O)N2Cc1ccc(NC(=O)CCN)cc1` [Cmpd 118]: the IC50 under setting [2] is 0.019 µM.

`N=C(N)NCCCCCCc1ccc2c(c1)C(=O)N(CCC(=O)O)CC(=O)N2Cc1ccc(NC(=O)CCNC(=N)N)cc1` [Cmpd 119]: the IC50 under setting [2] amounted to 0.013 µM.

As to `NCCCCCCc1ccc2c(c1)C(=O)N(CCC(=O)O)CC(=O)N2Cc1cccc(CCCCN)c1` [Cmpd 120], under setting [2], the IC50 was 0.024 µM.

Turning to `N=C(N)NCCCCCCc1ccc2c(c1)C(=O)N(CCC(=O)O)CC(=O)N2Cc1cccc(CCCCNC(=N)N)c1` [Cmpd 121], under setting [2], the IC50 turned out to be 0.02 µM.

Regarding `NCCCCCCc1ccc2c(c1)C(=O)N(CCC(=O)O)CC(=O)N2CCCCCN` [Cmpd 125], under setting [2], the IC50 is 0.064 µM.

Take `N=C(N)NCCCCCCc1ccc2c(c1)C(=O)N(CCC(=O)O)CC(=O)N2CCCCCNC(=N)N` [Cmpd 126]: under setting [2], the IC50 amounted to 0.04 µM.

Turning to `NCCCCCCc1ccc2c(c1)C(=O)N(CCC(=O)O)CC(=O)N2Cc1ccc(N)cc1` [Cmpd 128], the IC50 under setting [2] was determined as 0.024 µM.

In the case of `N=C(N)NCCCCCc1ccc2c(c1)C(=O)N(CCC(=O)O)CC(=O)N2CCCCC(=O)O` [Cmpd 131], the IC50 under setting [2] came out at 0.014 µM.

As to `NCCCCCc1ccc2c(c1)C(=O)N(CCC(=O)O)CC(=O)N2CCCCC(=O)O` [Cmpd 132], under setting [2], the IC50 is 0.931 µM.

For `N=C(N)NCCCCCc1ccc2c(c1)C(=O)N(CCC(=O)O)CC(=O)N2Cc1ccc(C(=O)O)cc1` [Cmpd 133], the IC50 under setting [2] came to 0.016 µM.

Take `N=C(N)NCCCCCCc1ccc2c(c1)C(=O)N(CCC(=O)O)CC(=O)N2Cc1ccc(C(=O)O)cc1` [Cmpd 134]: the IC50 under setting [2] stood at 0.019 µM.

Consider `NCCCCCCc1ccc2c(c1)C(=O)N(CCC(=O)O)CC(=O)N2Cc1ccc(C(=O)O)cc1` [Cmpd 135, 1-(4-carboxyphenyl)methyl-4-(2-carboxyethyl)-7-(6-aminohexyl)-3,4-dihydro-1H-1,4-benzodiazapine-2,5-dione], for which, under setting [2], the IC50 is 0.008 µM.

Turning to `NCCCCCc1ccc2c(c1)C(=O)N(CCC(=O)O)CC(=O)N2Cc1ccc(C(=O)O)cc1` [Cmpd 136], under setting [2], the IC50 stood at 0.176 µM.

For the molecule `CN1C(=O)CN(CCC(=O)O)C(=O)c2cc3cc(C#CCN)ccc3cc21` [Cmpd 137, 1-methyl-4-(2-carboxyethyl)-8-(3-amino-1-propynyl)-3,4-dihydro 1H-1,4-napthodiazepine-2,4-dione trifluoracetate], the IC50 under setting [2] came to 0.351 µM.

Regarding `CN1C(=O)CN(CCC(=O)O)C(=O)c2cc3cc(C#CCNC(=N)N)ccc3cc21` [Cmpd 138, 1-Methyl-4-(carboxyethyl)-8-(3-guanidino-1-propynyl)-3,4-dihydro-1H-1,4-naphthodiazepine-2,5-dione], the IC50 under setting [2] amounted to 0.009 µM.

Take `CN1C(=O)CN(CCC(=O)O)C(=O)c2cc3cc(CCCCN)ccc3cc21` [Cmpd 139]: the IC50 under setting [2] came to 0.153 µM.

As to `CN1C(=O)CN(CCC(=O)O)C(=O)c2cc3cc(CCCCNC(=N)N)ccc3cc21` [Cmpd 140], the IC50 under setting [2] is 0.069 µM.

For `CN1C(=O)CN(CCC(=O)O)C(=O)c2cc3c(cc21)CCC(CCCN)C3` (centres unmarked) [Cmpd 141, 1-Methyl-4-(carboxyethyl)-8-(3-amino-1-propyl)-3,4,7,8,9,10-hexahydrohydro-1H-1,4-naphthodiazepine-2,5-dione], the IC50 under setting [2] came to 1.8 µM.

Consider `CN1C(=O)CN(CCC(=O)O)C(=O)c2cc3c(cc21)CCC(CCCNC(=N)N)C3` (centres unmarked) [Cmpd 142], for which the IC50 under setting [2] was determined as 0.068 µM.

In the case of `CN1C(=O)CN(CCC(=O)O)C(=O)c2cc3c(cc21)CCC(CCCCN)C3` (centres unmarked) [Cmpd 143], under setting [2], the IC50 was 0.048 µM.

For `NCCCC#Cc1ccc2c(c1)C(=O)N(CCC(=O)O)CCO2` [Cmpd 144], the IC50 under setting [2] came out at 12 µM.

For the molecule `N=C(N)NCCCC#Cc1ccc2c(c1)C(=O)N(CCC(=O)O)CCO2` [Cmpd 145], under setting [2], the IC50 turned out to be 4 µM.

Consider `NCCCCCc1ccc2c(c1)C(=O)N(CCC(=O)O)CCO2` [Cmpd 146], for which the IC50 under setting [2] worked out at 80 µM.

Regarding `N=C(N)NCCCCCc1ccc2c(c1)C(=O)N(CCC(=O)O)CCO2` [Cmpd 147], the IC50 under setting [2] stood at 3 µM.

For the molecule `NCCCC#Cc1ccc2c(c1)C(=O)N(CCC(=O)O)CC(Cc1ccccc1)O2` (centres unmarked) [Cmpd 148], the IC50 under setting [2] stood at 5.9 µM.

As to `N=C(N)NCCCC#Cc1ccc2c(c1)C(=O)N(CCC(=O)O)CC(Cc1ccccc1)O2` (centres unmarked) [Cmpd 149], the IC50 under setting [2] came out at 0.823 µM.

`NCCOc1ccc(-c2ccc3c(c2)C(=O)N(CCC(=O)O)CC(Cc2ccccc2)O3)cc1` (centres unmarked) [Cmpd 150, trifluoroacetate]: the IC50 under setting [2] was 0.119 µM.

With `NCCCCCCCCOc1ccc2c(c1)C(=O)N(CCC(=O)O)CCC2` [Cmpd 151, 2-(2-carboxyethyl)-8-(8-aminooctyloxy)-2,3,4,5-tetrahydro-1H-2-benzazepin-1-one trifluoroacetate], the IC50 under setting [2] was over 100 µM.
